According to patent publication US12096773B2, “Herbicidal composition” (ISHIHARA SANGYO KAISHA, LTD., priority 2019, dated 2024):

Columns and labels:
Format in all cases: in vivo
[1] = test system: black nightshade (Solanum nigrum L.); test: Example 4 pot test, foliar treatment, black nightshade
Description: (§1) Upland field soil was put into a 1/1,000,000 hectare pot, and seeds of black nightshade (Solanum nigrum L.), wild oat (Avena fatua L.) and dandelion (Taraxacum officinale) were sown.

[2] = test system: horseweed (Conyza canadensis(L.) Cron.); test: Example 3 pot test, foliar treatment of horseweed, growth inhibition over time; details: for growth inhibition effect (in words): used alone, 19th day after the foliar treatment
Description: (§2) Upland field soil was put into a 1/1,000,000 hectare pot, and seeds of horseweed (Conyza canadensis(L.) Cron.) were sown.

[3] = test system: common ragweed (Ambrosia elatior L.); test: Example 6 pot test, foliar treatment, common ragweed
Description: (§3) Upland field soil was put into a 1/1,000,000 hectare pot, and seeds of common ragweed (Ambrosia elatior L.) and Kochia (Kochia scoparia L.) were sown.

[4] = test system: giant foxtail (Setaria faberi Herrm.); test: Example 8 pot test, foliar treatment, giant foxtail
Description: (§4) Upland field soil was put into a 1/1,000,000 hectare pot, and seeds of goosegrass (Eleusine indica L.), barnyardgrass (Echinochloa crus-galli L.), giant foxtail (Setaria faberi Herrm.) and crabgrass (Digitaria sanguinalis L.) were sown.

[5] = test system: redroot pigweed (Amaranthus retroflexus L.); test: Example 9 pot test, foliar treatment, redroot pigweed
Description: (§5) Upland field soil was put into a 1/1,000,000 hectare pot, and seeds of redroot pigweed (Amaranthus retroflexus L.), Kochia (Kochia scoparia L.) and Chenopodium album L. var. centrorubrum Makino were sown.

[6] = test system: yellow nutsedge (Cyperus esculentus L.); test: Example 5 pot test, foliar treatment, yellow nutsedge; details: 22nd day after foliar treatment
Description: Upland field soil was put into a 1/1,000,000 hectare pot, and tubers of yellow nutsedge (Cyperus esculentus L.) were embedded.

[7] = test system: horseweed (Conyza canadensis(L.) Cron.); test: Example 2 pot test, foliar treatment of horseweed, visual growth inhibition; details: 19th day after foliar treatment
Description: as §2

[8] = test system: horseweed (Conyza canadensis(L.) Cron.); test: Example 1 pot test, foliar treatment of horseweed, visual growth inhibition; details: 21st day after foliar treatment
Description: as §2

[9] = test system: dandelion (Taraxacum officinale); test: Example 4 pot test, foliar treatment, dandelion
Description: as §1

[10] = test system: Kochia (Kochia scoparia L.); test: Example 9 pot test, foliar treatment, Kochia
Description: as §5

[11] = test system: crabgrass (Digitaria sanguinalis L.); test: Example 8 pot test, foliar treatment, crabgrass
Description: as §4

[12] = test system: barnyardgrass (Echinochloa crus-galli L.); test: Example 8 pot test, foliar treatment, barnyardgrass
Description: as §4

[13] = test system: Kochia (Kochia scoparia L.); test: Example 6 pot test, foliar treatment, Kochia
Description: as §3

[14] = test system: Chenopodium album L. var. centrorubrum Makino; test: Example 9 pot test, foliar treatment, Chenopodium album var. centrorubrum
Description: as §5

[15] = test system: goosegrass (Eleusine indica L.); test: Example 8 pot test, foliar treatment, goosegrass
Description: as §4

[16] = test system: wild oat (Avena fatua L.); test: Example 4 pot test, foliar treatment, wild oat
Description: as §1

Compound: COC(=O)CCNC(=O)C(C)Sc1cc(-n2c(=O)cc(C(F)(F)F)n(C)c2=O)c(F)cc1Cl (stereo not drawn) [Tiafenacil, tiafenacil]
- Growth inhibition rate (%) Black nightshade (27th day) ([1]; dose 25 g/ha): 58%
- Growth inhibition rate (%) 19th day ([2]; dose 50 g/ha): 23%
- Growth inhibition rate (%) 27th day ([2]; dose 50 g/ha): 20%
- Growth inhibition rate (%) 42nd day ([2]; dose 50 g/ha): 20%
- Growth inhibition rate (%) 19th day ([2]; dose 100 g/ha): 50%
- Growth inhibition rate (%) 27th day ([2]; dose 100 g/ha): 43%
- Growth inhibition rate (%) 42nd day ([2]; dose 100 g/ha): 30%
- growth inhibition effect (in words) [2]: no sufficient growth inhibition effect
- Growth inhibition rate (%) Common Ragweed (6th day) ([3]; dose 25 g/ha): 50%
- Growth inhibition rate (%) Common Ragweed (6th day) ([3]; dose 50 g/ha): 50%
- Growth inhibition rate (%) Giant foxtail (7th day) ([4]; dose 2.5 g/ha): 80%
- Growth inhibition rate (%) Red root pigweed (8th day) ([5]; dose 1 g/ha): 50%
- Growth inhibition rate (%) Yellow nutsedge ([6]; dose 50 g/ha): 35%
- Growth inhibition rate (%) ([7]; dose 25 g/ha): 23%
- Growth inhibition rate (%) ([8]; dose 25 g/ha): 33%
- Growth inhibition rate (%) ([8]; dose 50 g/ha): 40%
- Growth inhibition rate (%) Dandelion (10th day) ([9]; dose 25 g/ha): 30%
- Growth inhibition rate (%) Kochia (14th day) ([10]; dose 1 g/ha): 13%
- Growth inhibition rate (%) Kochia (14th day) ([10]; dose 2 g/ha): 23%
- Growth inhibition rate (%) Crabgrass (18th day) ([11]; dose 2.5 g/ha): 30%
- Growth inhibition rate (%) Barnyardgrass (11th day) ([12]; dose 2.5 g/ha): 30%
- Growth inhibition rate (%) Kochia (10th day) ([13]; dose 25 g/ha): 30%
- Growth inhibition rate (%) Kochia (10th day) ([13]; dose 50 g/ha): 30%
- Growth inhibition rate (%) Chenopodium album L. var. centrorubrum Makino (14th day) ([14]; dose 1 g/ha): 3%
- Growth inhibition rate (%) Chenopodium album L. var. centrorubrum Makino (14th day) ([14]; dose 2 g/ha): 30%

Compound: CCn1ncc(C(=O)c2ccc(S(C)(=O)=O)c(OCCOC)c2C)c1OC(C)OC(=O)OC (stereo not drawn) [Tolpyralate, tolpyralate]
- Growth inhibition rate (%) Goosegrass (5th day) ([15]; dose 1.5 g/ha): 15%
- Growth inhibition rate (%) Goosegrass (5th day) ([15]; dose 3 g/ha): 15%
- Growth inhibition rate (%) Goosegrass (5th day) ([15]; dose 5 g/ha): 23%
- Growth inhibition rate (%) Black nightshade (27th day) ([1]; dose 15 g/ha): 72%
- Growth inhibition rate (%) Black nightshade (27th day) ([1]; dose 30 g/ha): 79%
- Growth inhibition rate (%) Black nightshade (27th day) ([1]; dose 50 g/ha): 78%
- Growth inhibition rate (%) 19th day ([2]; dose 5 g/ha): 20%
- Growth inhibition rate (%) 27th day ([2]; dose 5 g/ha): 47%
- Growth inhibition rate (%) 42nd day ([2]; dose 5 g/ha): 23%
- Growth inhibition rate (%) 19th day ([2]; dose 10 g/ha): 17%
- Growth inhibition rate (%) 27th day ([2]; dose 10 g/ha): 37%
- Growth inhibition rate (%) 42nd day ([2]; dose 10 g/ha): 47%
- growth inhibition effect (in words) [2]: no sufficient growth inhibition effect
- Growth inhibition rate (%) Common Ragweed (6th day) ([3]; dose 15 g/ha): 15%
- Growth inhibition rate (%) Common Ragweed (6th day) ([3]; dose 30 g/ha): 15%
- Growth inhibition rate (%) Common Ragweed (6th day) ([3]; dose 50 g/ha): 10%
- Growth inhibition rate (%) Giant foxtail (7th day) ([4]; dose 1.5 g/ha): 10%
- Growth inhibition rate (%) Giant foxtail (7th day) ([4]; dose 3 g/ha): 30%
- Growth inhibition rate (%) Giant foxtail (7th day) ([4]; dose 5 g/ha): 40%
- Growth inhibition rate (%) Red root pigweed (8th day) ([5]; dose 1.5 g/ha): 23%
- Growth inhibition rate (%) Red root pigweed (8th day) ([5]; dose 3 g/ha): 25%
- Growth inhibition rate (%) Red root pigweed (8th day) ([5]; dose 5 g/ha): 30%
- Growth inhibition rate (%) Yellow nutsedge ([6]; dose 15 g/ha): 40%
- Growth inhibition rate (%) Yellow nutsedge ([6]; dose 30 g/ha): 50%
- Growth inhibition rate (%) Wild oat (21st day) ([16]; dose 15 g/ha): 10%
- Growth inhibition rate (%) Wild oat (21st day) ([16]; dose 30 g/ha): 28%
- Growth inhibition rate (%) Wild oat (21st day) ([16]; dose 50 g/ha): 30%
- Growth inhibition rate (%) ([7]; dose 125 g/ha): 33%
- Growth inhibition rate (%) ([7]; dose 250 g/ha): 37%
- Growth inhibition rate (%) ([8]; dose 15 g/ha): 33%
- Growth inhibition rate (%) ([8]; dose 30 g/ha): 30%
- Growth inhibition rate (%) ([8]; dose 50 g/ha): 30%
- Growth inhibition rate (%) Dandelion (10th day) ([9]; dose 15 g/ha): 30%
- Growth inhibition rate (%) Dandelion (10th day) ([9]; dose 30 g/ha): 30%
- Growth inhibition rate (%) Dandelion (10th day) ([9]; dose 50 g/ha): 30%
- Growth inhibition rate (%) Kochia (14th day) ([10]; dose 1.5 g/ha): 10%
- Growth inhibition rate (%) Kochia (14th day) ([10]; dose 3 g/ha): 23%
- Growth inhibition rate (%) Kochia (14th day) ([10]; dose 5 g/ha): 25%
- Growth inhibition rate (%) Crabgrass (18th day) ([11]; dose 1.5 g/ha): 30%
- Growth inhibition rate (%) Crabgrass (18th day) ([11]; dose 3 g/ha): 40%
- Growth inhibition rate (%) Crabgrass (18th day) ([11]; dose 5 g/ha): 50%
- Growth inhibition rate (%) Barnyardgrass (11th day) ([12]; dose 1.5 g/ha): 45%
- Growth inhibition rate (%) Barnyardgrass (11th day) ([12]; dose 3 g/ha): 45%
- Growth inhibition rate (%) Barnyardgrass (11th day) ([12]; dose 5 g/ha): 40%
- Growth inhibition rate (%) Kochia (10th day) ([13]; dose 15 g/ha): 15%
- Growth inhibition rate (%) Kochia (10th day) ([13]; dose 30 g/ha): 20%
- Growth inhibition rate (%) Kochia (10th day) ([13]; dose 50 g/ha): 15%
- Growth inhibition rate (%) Chenopodium album L. var. centrorubrum Makino (14th day) ([14]; dose 1.5 g/ha): 10%
- Growth inhibition rate (%) Chenopodium album L. var. centrorubrum Makino (14th day) ([14]; dose 3 g/ha): 10%
- Growth inhibition rate (%) Chenopodium album L. var. centrorubrum Makino (14th day) ([14]; dose 5 g/ha): 15%
